Measurements from patent publication US11767330B2, “Citrate salt, pharmaceutical compositions, and methods of making and using the same” (Foghorn Therapeutics Inc., priority 2021, dated 2023).

Experiment: Forced degradation study of compound D1 (HPLC)
Format: physicochemical
Method: Sample stock solution was prepared by weighing 60.74 mg of compound D1 to a 100 mL volumetric flask, dissolving by ultrasonic in 50 mL of diluent 2, diluting to volume with diluent 2, and mixing well.
Unstressed sample solution was prepared by weighing 21.32 mg of compound D1 into a 100 mL volumetric flask, dissolving by ultrasonic in 50 mL of diluent 3, diluting to volume with diluent 3, and mixing well.
Sample solution for pH=4.0 solution stability was prepared as follows. 20.96 mg of compound D1 were weighed into a 100 mL volumetric flask, dissolved by ultrasonic in 50 mL of pH=4.0 50 mM sodium citrate buffer, diluted to volume with pH=4.0 50 mM sodium citrate buffer, and mixed well.
Sample solution for pH=5.0 solution stability was prepared as follows. 20.75 mg of compound D were weighed into a 100 mL volumetric flask, dissolved by ultrasonic in 50 mL of pH=5.0 50 mM sodium citrate buffer, diluted to volume with pH=5.0 50 mM sodium citrate buffer, and mixed well.
Sample solution for pH=7.0 solution stability was prepared as follows. 19.91 mg of compound D1 and 684.71 mg KH2PO4 were weighed into a 100 mL volumetric flask, dissolved by ultrasonic in 50 mL of diluent 1, transferred 29.1 mL of 0.1N NaOH into the same volumetric flask, diluted to volume with diluent 1, and mixed well.
Acid degradation (1N HCl at RT). 3 mL of the sample stock solution (see above) were transferred into an 8 mL vial, 3 mL of 2N HCl solution were added, and the resulting mixture was mixed well. Samples were prepared in quadruplicate and kept at RT. At the sampling point, 2 mL of the sample were transferred into an 8 mL vial and neutralized with 1 mL of 2N NaOH.
Samples were prepared in triplicate and kept at RT. […]
Oxidation degradation (3% H2O2 at RT). 3 mL of the sample stock solution (see above) were transferred into an 8 mL vial, 3 mL of 6% H2O2 solution were added, and the resulting mixture was mixed well. Samples were prepared in quadruplicate and kept at RT. At the sampling time point, 2 mL of the solution were transferred into an 8 mL vial, neutralized with 1 mL of diluent 3, and mixed well.
Photolysis degradation (solid). About 60 mg of compound D1 were placed onto a watch glass. Samples were prepared in triplicate and placed in a photo chamber (see Table 8). At the sampling time point, the sample was placed in a vial for analysis. About 20.0±2.0 mg of the sample into a 100 mL volumetric flask, dissolved by ultrasonic in 50 mL of diluent 3, diluted to volume with diluent 3, and mixed well.
Dark control sample: one sample was prepared as described above for this test, but the watch glass was covered with aluminum foil, and processed as described above.
Solid: about 60 mg of compound D1 were weighted into an 8 mL vial. Samples were prepared in triplicate and placed in an oven at 80° C. At the sampling time point, about 20.0±2.0 mg of the sample were weighed into a 100 mL volumetric flask, dissolved by ultrasonic in 50 mL of diluent 3, diluted to volume with diluent 3, and mixed well.
Solution: 3 mL of the sample stock solution (see above) were transferred into an 8 mL vial. Samples were prepared in triplicate and placed them in an oven at 80° C. At the sampling time point, 1 mL of the solution was transferred into an 8 mL vial, neutralized with 2 mL of diluent 3, and mixed well.
Humidity degradation (92% RH for solid). About 60 mg of compound D1 were transferred into a 20 mL vial (without cap). Samples were prepared in triplicate and placed in a desiccator at 92% RH. At the sampling time point, about 20.0±2.0 mg of the sample were transferred into a 100 mL volumetric flask, dissolved by ultrasonic in 50 mL of diluent 3, diluted to volume with diluent 3, and mixed well.
Solution Stability. Samples were prepared tested under the solution stability conditions noted in Table 8. The sampling time points were as noted in Table 8.

[1] = Acid Hydrolysis, 1N HCl RT, 0 h
[2] = Acid Hydrolysis, 1N HCl RT, 1 d
[3] = Acid Hydrolysis, 1N HCl RT, 2 d
[4] = Acid Hydrolysis, 1N HCl RT, 3 d
[5] = Base Hydrolysis, 1N NaOH RT, 0 h
[6] = Base Hydrolysis, 1N NaOH RT, 1 h
[7] = Photolysis, 1.10 W/m^2/25° C. for solid, 13 h
[8] = Photolysis, 1.10 W/m^2/25° C. for solid, 26 h
[9] = Photolysis, 1.10 W/m^2/25° C. for solid, 39 h
[10] = Solution Stability, pH = 4.0, 50 mM Sodium citrate buffer at RT, 0 h
[11] = Solution Stability, pH = 4.0, 50 mM Sodium citrate buffer at RT, 1 d
[12] = Solution Stability, pH = 4.0, 50 mM Sodium citrate buffer at RT, 3 d
[13] = Solution Stability, pH = 4.0, 50 mM Sodium citrate buffer at RT, 7 d
[14] = Solution Stability, pH = 5.0 50 mM Sodium citrate buffer at RT, 0 h
[15] = Solution Stability, pH = 5.0 50 mM Sodium citrate buffer at RT, 1 d
[16] = Solution Stability, pH = 5.0 50 mM Sodium citrate buffer at RT, 3 d
[17] = Solution Stability, pH = 5.0 50 mM Sodium citrate buffer at RT, 7 d
[18] = Solution Stability, pH = 7.0 Phosphate buffer at RT, 0 h
[19] = Solution Stability, pH = 7.0 Phosphate buffer at RT, 1 d
[20] = Solution Stability, pH = 7.0 Phosphate buffer at RT, 2 d

COc1cc(-c2cn(C)c(=O)c3cnc(N4CCC4)cc23)cc(OC)c1CN1CCC(CN2CCC3(CC2)CN(c2ccc4c(c2)C(=O)N(C2CCC(=O)NC2=O)C4)C3)CC1 (racemic) [Compound D1, 3-[6-(7-[[1-([4-[6-(azetidin-1-yl)-2-methyl-1-oxo-2,7-naphthyridin-4-yl]-2,6-dimethoxyphenyl]methyl)piperidin-4-yl]methyl]-2,7-diazaspiro[3.5]nonan-2-yl)-1-oxo-3H-isoindol-2-yl]piperidine-2,6-dione]
% Degradation [1]: 0.438%
% Mass Balance [1]: 108.2%
Area % [1]: 93.734%
% Degradation [2]: 4.781%
% Mass Balance [2]: 106.5%
Area % [2]: 89.391%
% Degradation [3]: 8.992%
% Mass Balance [3]: 107.6%
Area % [3]: 85.180%
% Degradation [4]: 12.125%
% Mass Balance [4]: 106.9%
Area % [4]: 82.047%
% Degradation [5]: 25.210%
% Mass Balance [5]: 104.0%
Area % [5]: 68.962%
% Degradation [6]: 76.841%
% Mass Balance [6]: 98.0%
Area % [6]: 17.331%
% Degradation (Humidity, 92% RH, 1 d): 1.245%
% Mass Balance (Humidity, 92% RH, 1 d): 98.8%
Area % (Humidity, 92% RH, 1 d): 92.927%
% Degradation (Humidity, 92% RH, 3 d): 2.091%
% Mass Balance (Humidity, 92% RH, 3 d): 99.5%
Area % (Humidity, 92% RH, 3 d): 92.081%
% Degradation (Humidity, 92% RH, 7 d): 3.282%
% Mass Balance (Humidity, 92% RH, 7 d): 99.8%
Area % (Humidity, 92% RH, 7 d): 90.890%
% Degradation (Oxidation, 3% H2O2 RT, 0 h): 16.184%
% Mass Balance (Oxidation, 3% H2O2 RT, 0 h): 106.8%
Area % (Oxidation, 3% H2O2 RT, 0 h): 77.988%
% Degradation (Oxidation, 3% H2O2 RT, 8 h): 60.417%
% Mass Balance (Oxidation, 3% H2O2 RT, 8 h): 105.2%
Area % (Oxidation, 3% H2O2 RT, 8 h): 33.755%
% Degradation [7]: 3.088%
% Mass Balance [7]: 101.0%
Area % [7]: 91.084%
% Degradation [8]: 3.256%
% Mass Balance [8]: 92.1%
Area % [8]: 90.916%
% Degradation [9]: 3.436%
% Mass Balance [9]: 105.7%
Area % [9]: 90.736%
% Degradation [10]: 0.656%
% Mass Balance [10]: 90.1%
Area % [10]: 93.516%
% Degradation [11]: 0.841%
% Mass Balance [11]: 93.7%
Area % [11]: 93.331%
% Degradation [12]: 1.299%
% Mass Balance [12]: 93.9%
Area % [12]: 92.873%
% Degradation [13]: 2.042%
% Mass Balance [13]: 93.7%
Area % [13]: 92.130%
% Degradation [14]: 1.674%
% Mass Balance [14]: 95.3%
Area % [14]: 92.498%
% Degradation [15]: 1.922%
% Mass Balance [15]: 103.1%
Area % [15]: 92.250%
% Degradation [16]: 2.133%
% Mass Balance [16]: 100.0%
Area % [16]: 92.039%
% Degradation [17]: 4.658%
% Mass Balance [17]: 100.8%
Area % [17]: 89.514%
% Degradation [18]: 1.534%
% Mass Balance [18]: 97.1%
Area % [18]: 92.638%
% Degradation [19]: 8.920%
% Mass Balance [19]: 102.6%
Area % [19]: 85.252%
% Degradation [20]: 15.170%
% Mass Balance [20]: 100.6%
Area % [20]: 79.002%
% Degradation (Thermal, 80° C., Solid, 1 d): 0.724%
% Mass Balance (Thermal, 80° C., Solid, 1 d): 105.7%
Area % (Thermal, 80° C., Solid, 1 d): 93.448%
% Degradation (Thermal, 80° C., Solid, 3 d): 0.978%
% Mass Balance (Thermal, 80° C., Solid, 3 d): 97.6%
Area % (Thermal, 80° C., Solid, 3 d): 93.194%
% Degradation (Thermal, 80° C., Solid, 7 d): 11.980%
% Mass Balance (Thermal, 80° C., Solid, 7 d): 92.7%
Area % (Thermal, 80° C., Solid, 7 d): 82.192%
% Degradation (Thermal, 80° C., Solution, 1 d): 0.119%
% Mass Balance (Thermal, 80° C., Solution, 1 d): 100.5%
Area % (Thermal, 80° C., Solution, 1 d): 94.053%
% Degradation (Thermal, 80° C., Solution, 7 d): 62.235%
% Mass Balance (Thermal, 80° C., Solution, 7 d): 104.2%
Area % (Thermal, 80° C., Solution, 7 d): 31.937%
Area % (Unstressed): 94.172%
